The source of these data is patent US20220127298A1, “THERMOSPOROTHRIX HAZAKENSIS-DERIVED ANTIBACTERIALLY ACTIVE SUBSTANCE” (KENNAN EISEI KOGYO CO., LTD., priority 2019, published 2022).

Common to all, as to format: cell-based
Data set [1] deals with Thermosporothrix narukonensis F4^T. As to the kind of experiment: Antibacterial spectrum test, paper disk assay. The conditions noted are these: 50 μL of 1000 γ solution in methanol, YS medium, 50° C., 2 days. As for the experimental part:
(§1) The antibacterial activity of HK-1 was assayed using a paper disk against the following bacterial bodies.
(§2) A piece of ice out of a glycerol stock of S. griseus stored at −80° C. was planarly inoculated on the YMPD agar culture medium with a toothpick. This was incubated at 28° C. for 5 days. After the incubation, a small amount of spore was scraped off with a swab, and planarly inoculated on the YMPD culture medium. A piece of paper disk was placed on a filter paper, onto which 50 μL of a HK-1 solution adjusted to 1000 γ with methanol was dropped and dried. Then the disk was placed on the agar culture medium coated with the bacterial body. After incubation at 28° C. for 4 days, the diameter of the inhibition ring was measured.
(§3) Assays were performed in the same manner as in 3 above, except that the incubation conditions were changed to YS culture medium (see Example 1), 50° C., and 2-day period.

The test system of data set [2] is Thermosporothrix hazakensis SK20-1^T NBRC 105916^T. As to the kind of experiment: Antibacterial spectrum test, paper disk assay. The conditions noted are these: 50 μL of 1000 γ solution in methanol, YS medium, 50° C., 2 days. The protocol: as §1, §2, §3
For the next data set, the system named is Streptomyces sp. AGRN-7. Briefly: Antibacterial spectrum test, paper disk assay. The note with it: 50 μL of 1000 γ solution in methanol, ISP2 medium, 45° C., 2 days. As for the experimental part: as §1, §2
An assay was performed in the same manner as in 3 above, except that the incubation conditions were changed to ISP2 culture medium, 45° C., and 2-day period.

Data set [3] concerns Streptomyces griseus NBRC 15744^T. As to the kind of experiment: Antibacterial spectrum test, paper disk assay. The note with it: 50 μL of 1000 γ solution in methanol, YMPD medium, 28° C., 4 days. The protocol:
as §1, §2

Another data set concerns Streptomyces sp. AGRN-9. Briefly: Antibacterial spectrum test, paper disk assay. The note with it: 50 μL of 1000 γ solution in methanol, BM medium, 45° C., 2 days. The protocol:
as §1, §2
(§4) Assays were performed in the same manner as in 3 above, except that the incubation conditions were changed to BM culture medium, 45° C., and 2-day period.

For the next data set, the system named is Streptomyces sp. AGRN-8. Briefly: Antibacterial spectrum test, paper disk assay. The conditions noted are these: 50 μL of 1000 γ solution in methanol, BM medium, 45° C., 2 days. The protocol:
as §1, §2, §4

Data set [4] deals with Geobacillus stearothermophilus ATCC 7953. Briefly: Heat resistance test B (storage), antibacterial activity as index. The note with it: FIG. 4-3. As for the experimental part:
(§5) Examples of a typical test for measuring the stability of a compound include pH stability test, as well as heat resistance test, and storage test. This information is also regarded as important in evaluating the compound as described above. Using the sample of HK-1 prepared in the above “3. Antibacterial activity test in changing pH”, experiments were carried out to examine whether the compound is stable or not using G. stearothermophilus and B. subtilis guided by the antibacterial activity as the index.
(§6) One (1) mL each of two samples prepared in the above “3. Antibacterial activity test in changing pH” was dispensed into two 1-mL micro tubes. The openings of total four tubes were closed hermetically with parafilm, and each one is shielded with an aluminum foil, and stored in a freezer set at −28° C., or an incubator set at 28° C. and 50° C. Each sample was assayed 1, 3, 6, 12, and 24 days after the initiation of the storage using the culture medium for assaying antibacterial activity prepared in “3. Antibacterial activity test in changing pH” above.

Data set [5] deals with Bacillus subtilis NBRC 3134^T. The description is as above. The conditions noted are these: FIG. 4-2. The protocol:
as §5, §6

For data set [6], the system named is Escherichia coli NBRC 102203^T. As to the kind of experiment: Antibacterial spectrum test, paper disk assay. The conditions noted are these: 50 μL of 1000 γ solution in methanol, LB agar, 37° C., 18 hours. As for the experimental part:
(§7) The antibacterial activity of HK-1 was assayed using a paper disk against the following bacterial bodies. A piece of ice was taken out of a glycerol stock of G. stearothermophilus stored at -80° C. and […] inoculated on the LB agar culture medium (see Example 1) with a toothpick. This was incubated at 60° C. for 18 hours. After the incubation, 1⁄2 platinum loop of the culture was harvested and suspended in 500 μL of sterile water. The bacterial suspension was diluted 10-fold with sterile water. Onto a LB agar culture medium, 100 μL of the diluted suspension was dropped and spread until it was dried up. A piece of paper disk was placed on a filter paper, onto which 50 μL of a HK-1 solution adjusted to 1000 γ with methanol was dropped and dried. Then the disk was placed on the agar culture medium coated with the bacterial body. After incubation at 60° C. for 18 hours, the diameter of the inhibition ring was measured. Assays were performed in the same manner as in 1 above, except that the incubation temperature was changed to 37° C.

Data set [7] deals with Bacillus subtilis NBRC 3134^T. As to the kind of experiment: Antibacterial spectrum test, paper disk assay. The conditions noted are these: 50 μL of 1000 γ solution in methanol, LB agar, 37° C., 18 hours. The protocol: as §7
Setting [8] is: pH not adjusted, storage at −28° C., 28° C., 50° C., 1 to 24 days.
The mark [9] stands for this setting: two samples (pH 9, pH not adjusted), stored at −28° C., 28° C. and 50° C., after 24 days.

`COc1cc(OOc2cc(OC)c3c(c2-c2c(O)c(Cl)c(C)c4c2C(O)c2c(Cl)c(O)cc(O)c2C4=O)C(OC2OC(C)C(O)C2O)c2c(Cl)c(OC)c(Cl)c(C)c2C3=O)c(-c2c(O)c(Cl)c(C)c3c2C(O)c2c(Cl)c(O)cc(O)c2C3=O)c2c1C(=O)c1c(C)c(Cl)c(OC)c(Cl)c1C2OC1OC(C)C(O)C1O` (stereo not drawn) [HK-1]: the inhibition ring diameter in [1] came out at 10.0 mm; in data set [2], 10.0 mm; with Streptomyces sp. AGRN-7, 22.0 mm; in data set [3], 38.0 mm; in the data set with Streptomyces sp. AGRN-9 it was 19.0 mm; in the data set on Streptomyces sp. AGRN-8 it was 16.0 mm. Besides, the values for the inhibition ring diameter in data set [6] and in [7] were 14.0 mm and 32.0 mm, respectively. The “difference in antibacterial activity due to the storage temperature” value in data set [4] (setting [8]) and in data set [5] (setting [8]) was “no significant difference” throughout. Moreover, the “antibacterial activity after storage” value in data set [4] (setting [9]) and in data set [5] (setting [9]) was “not lost” each time.
